Laboratory results from US20210275422A1, “ANTI-STRESS COMPOSITION CONTAINING COSMOPERINE” (AMOREPACIFIC CORPORATION, priority 2016, published 2021).

Legend:
[1] = molecular target: T1, oxytocin receptor recombinant protein (Homo sapiens, UniProt P30559); assay: Binding of cosmoperine to the oxytocin receptor by surface plasmon resonance; details: SPR chip with oxytocin receptor bound to its surface; cosmoperine 0 to 400 μM; reaction for 90 seconds
T1 construct: purchased Mybiosource, MA
T1 sequence (P30559 1-389): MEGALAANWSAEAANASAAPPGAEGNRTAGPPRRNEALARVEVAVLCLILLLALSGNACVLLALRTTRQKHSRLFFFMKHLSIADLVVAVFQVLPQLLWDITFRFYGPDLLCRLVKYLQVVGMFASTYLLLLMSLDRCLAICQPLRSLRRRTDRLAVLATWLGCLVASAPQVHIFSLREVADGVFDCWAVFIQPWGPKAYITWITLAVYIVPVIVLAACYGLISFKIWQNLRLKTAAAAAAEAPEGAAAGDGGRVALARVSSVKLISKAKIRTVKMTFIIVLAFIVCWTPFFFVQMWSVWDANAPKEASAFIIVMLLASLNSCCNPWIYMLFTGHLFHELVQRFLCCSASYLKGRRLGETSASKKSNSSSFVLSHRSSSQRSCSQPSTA
Description: In order to confirm the binding of cosmoperine to the oxytocin receptor, cosmoperine (Sabina Corp, NJ) at a concentration of 0 to 400 μM was applied to a SPR chip (Biorad, MA) with the oxytocin receptor (oxytocin receptor recombinant protein, Mybiosource, MA) bound to its surface, followed by reaction for 90 seconds. Then, the binding pattern of cosmoperine to the oxytocin receptor was measured using a surface plasmon resonance device (Surface plasmon resonance; Biorad, MA).

[2] = tested on: PC12 (neurocytoma cell); assay: Inhibitory effect on glucocorticoid-induced apoptosis (CCK-8 cell survival); type: cell-based; details: PC12 cells, 400 μM corticosterone 24 hours, 50 μM cosmoperine pretreated 2 hours before, relative survival rate
Description: In order to confirm the anti-stress effect of cosmoperine, a test was performed for glucocorticoid-induced apoptosis.
PC12 (neurocytoma cell; KCLB21721, Korea Cell Line Bank) was seeded into a 96-well plate at 2×10^4 cells/well and cultured at 5% CO2 and 37° C. The culture medium was RPMI 1640 medium (Gibco BRL, Grand Island, N.Y., USA)) supplemented with 10% serum (heat-inactivated fetal bovine serum (FBS, Gibco)), 100 U/ml of penicillin (Gibco) and 100 μg/ml of streptomycin (Gibco). The cells were treated with 400 μM corticosterone (Sigma, MA), which is a stress hormone, and cultured at 5% CO2 and 37° C. for 24 hours to induce stress. 400 μM corticosterone and 50 μM fluoxetine (fluoxetine hydrochloride, Sigma), which is an antidepressant, were used as the positive control group. For the cosmoperine-treated group, 400 μM corticosterone and 50 μM cosmoperine (Sabina Corp, NJ) were used. Fluoxetine and cosmoperine each were pretreated 2 hours before the application of corticosterone. 10 μl of CCK-8 solution (Dojindo Laboratories) was added to each of the wells, followed by culture for 2 hours. Then, measurements were made at […].

O=C(CCCCc1ccc2c(c1)OCO2)N1CCCCC1 [cosmoperine, tetrahydropiperine]
binding to the oxytocin receptor [1]: binds to the oxytocin receptor in a concentration-dependent manner
inhibiting the apoptosis induced by corticosterone [2]: excellent in inhibiting the apoptosis induced by corticosterone
